Test results: paper PMC2654387 (Biochemistry, 2008)
Read-outs that look alike come from different tables or passages of the source.

What was measured:
[1] = target: T1, EntE (Escherichia coli, UniProt P10378); test: biochemical; format: binding
[2] = target: T2, BasE (Acinetobacter baumannii, UniProt A0A0D5YGP3); test: biochemical; format: binding
[3] = target: T3, YbtE (Yersinia pseudotuberculosis serotype I, UniProt Q3V7P9); conditions: read-out: Calculated Ligand-Protein Dissociation Constant KD2
[4] = target: T4, MbtA (Mycobacterium tuberculosis, UniProt P71716); test: biochemical; format: binding
[5] = target: T5, VibE (Vibrio cholerae serotype O1, UniProt O07899); test: biochemical; format: binding
[6] = target: T2, BasE; format: biochemical
[7] = target: T1, EntE; conditions: cited from earlier work
[8] = target: T6, DhbE (Bacillus subtilis, UniProt P40871); test: biochemical; format: binding
[9] = target: T2, BasE; format: binding
[10] = target: T4, MbtA
[11] = target: T2, BasE; format: binding; remark: listed apart in the source
[12] = target: T3, YbtE
[13] = target: T4, MbtA; remark: listed apart in the source
[14] = target: T1, EntE
[15] = target: T4, MbtA; remark: listed apart in the source
[16] = target: AsbC (Bacillus anthracis, UniProt Q81RQ7)
[17] = target: T6, DhbE; format: binding
[18] = target: T5, VibE
[19] = read-out: Calculated Ligand-Protein Dissociation Constant KD2
[20] = Calculated Ligand-Protein Dissociation Constant KD2

T5 sequence (O07899 whole entry): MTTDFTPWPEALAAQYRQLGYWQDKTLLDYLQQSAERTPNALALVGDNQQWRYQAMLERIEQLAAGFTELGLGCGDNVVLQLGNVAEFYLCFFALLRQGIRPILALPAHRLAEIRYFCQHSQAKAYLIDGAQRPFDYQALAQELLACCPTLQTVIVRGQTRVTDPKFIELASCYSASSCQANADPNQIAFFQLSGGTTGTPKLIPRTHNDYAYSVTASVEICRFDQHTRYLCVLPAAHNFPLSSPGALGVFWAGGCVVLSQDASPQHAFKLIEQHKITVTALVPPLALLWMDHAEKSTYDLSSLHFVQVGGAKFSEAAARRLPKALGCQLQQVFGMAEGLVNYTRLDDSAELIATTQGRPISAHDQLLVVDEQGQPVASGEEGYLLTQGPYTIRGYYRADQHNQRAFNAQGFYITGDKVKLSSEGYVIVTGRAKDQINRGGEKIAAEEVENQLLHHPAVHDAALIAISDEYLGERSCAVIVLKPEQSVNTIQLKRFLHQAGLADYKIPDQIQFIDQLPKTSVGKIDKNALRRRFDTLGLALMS
T6 sequence (P40871 whole entry): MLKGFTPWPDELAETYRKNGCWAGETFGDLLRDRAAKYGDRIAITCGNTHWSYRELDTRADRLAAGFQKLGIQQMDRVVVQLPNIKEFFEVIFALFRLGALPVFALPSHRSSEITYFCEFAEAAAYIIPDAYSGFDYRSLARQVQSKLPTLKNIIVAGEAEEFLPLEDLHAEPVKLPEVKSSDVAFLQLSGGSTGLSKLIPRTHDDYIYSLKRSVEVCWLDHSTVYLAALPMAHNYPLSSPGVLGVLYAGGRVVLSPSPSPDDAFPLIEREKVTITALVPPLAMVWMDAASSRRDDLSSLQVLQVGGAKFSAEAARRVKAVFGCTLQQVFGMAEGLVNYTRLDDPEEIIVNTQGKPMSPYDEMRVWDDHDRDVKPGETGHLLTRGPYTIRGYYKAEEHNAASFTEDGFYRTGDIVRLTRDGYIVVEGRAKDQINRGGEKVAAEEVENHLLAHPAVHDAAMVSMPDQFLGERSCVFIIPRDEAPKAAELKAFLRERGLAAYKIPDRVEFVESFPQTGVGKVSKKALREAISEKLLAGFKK
T2 sequence (A0A0D5YGP3 1-542): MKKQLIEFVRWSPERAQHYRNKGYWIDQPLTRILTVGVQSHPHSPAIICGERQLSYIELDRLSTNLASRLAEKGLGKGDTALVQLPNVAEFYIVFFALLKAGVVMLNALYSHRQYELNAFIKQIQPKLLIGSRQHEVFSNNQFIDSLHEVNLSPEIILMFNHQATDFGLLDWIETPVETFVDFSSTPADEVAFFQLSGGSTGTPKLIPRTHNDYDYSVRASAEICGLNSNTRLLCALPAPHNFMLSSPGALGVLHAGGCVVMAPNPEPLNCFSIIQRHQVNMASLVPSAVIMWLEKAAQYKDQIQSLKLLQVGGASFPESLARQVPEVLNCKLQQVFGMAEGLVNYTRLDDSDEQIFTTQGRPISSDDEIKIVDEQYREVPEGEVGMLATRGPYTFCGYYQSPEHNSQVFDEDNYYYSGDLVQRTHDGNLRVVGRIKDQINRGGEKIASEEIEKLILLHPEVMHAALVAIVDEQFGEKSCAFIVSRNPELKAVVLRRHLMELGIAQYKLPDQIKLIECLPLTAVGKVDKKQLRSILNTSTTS
T4 sequence (P71716 whole entry, looked up): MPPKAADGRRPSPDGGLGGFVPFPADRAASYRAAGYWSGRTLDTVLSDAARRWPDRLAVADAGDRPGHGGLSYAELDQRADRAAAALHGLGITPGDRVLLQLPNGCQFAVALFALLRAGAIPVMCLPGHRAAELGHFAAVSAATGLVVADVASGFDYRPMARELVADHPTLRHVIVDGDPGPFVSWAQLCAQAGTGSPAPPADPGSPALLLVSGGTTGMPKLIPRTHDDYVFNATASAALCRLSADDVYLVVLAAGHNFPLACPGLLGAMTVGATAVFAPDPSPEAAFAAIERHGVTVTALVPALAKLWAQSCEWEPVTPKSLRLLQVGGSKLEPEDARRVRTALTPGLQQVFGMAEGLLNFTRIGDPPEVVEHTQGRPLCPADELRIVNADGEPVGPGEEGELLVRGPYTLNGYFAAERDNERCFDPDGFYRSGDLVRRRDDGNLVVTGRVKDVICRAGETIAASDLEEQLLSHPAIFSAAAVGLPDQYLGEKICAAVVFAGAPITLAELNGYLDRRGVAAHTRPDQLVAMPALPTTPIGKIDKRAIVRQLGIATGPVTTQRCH
T3 sequence (Q3V7P9 1-525): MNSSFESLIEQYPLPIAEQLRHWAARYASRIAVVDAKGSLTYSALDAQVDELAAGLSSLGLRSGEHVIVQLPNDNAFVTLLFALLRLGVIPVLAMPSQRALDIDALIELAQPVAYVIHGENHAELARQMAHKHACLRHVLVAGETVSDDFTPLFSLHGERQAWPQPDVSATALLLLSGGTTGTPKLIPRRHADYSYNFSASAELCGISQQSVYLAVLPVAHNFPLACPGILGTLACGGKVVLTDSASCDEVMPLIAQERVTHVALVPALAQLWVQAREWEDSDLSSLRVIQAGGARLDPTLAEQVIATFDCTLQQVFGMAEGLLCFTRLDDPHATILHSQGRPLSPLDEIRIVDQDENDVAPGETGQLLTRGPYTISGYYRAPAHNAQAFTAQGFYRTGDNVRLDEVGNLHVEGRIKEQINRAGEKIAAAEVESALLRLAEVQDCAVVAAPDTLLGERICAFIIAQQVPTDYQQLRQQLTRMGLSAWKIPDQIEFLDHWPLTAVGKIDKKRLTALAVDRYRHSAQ
T1 sequence (P10378 whole entry): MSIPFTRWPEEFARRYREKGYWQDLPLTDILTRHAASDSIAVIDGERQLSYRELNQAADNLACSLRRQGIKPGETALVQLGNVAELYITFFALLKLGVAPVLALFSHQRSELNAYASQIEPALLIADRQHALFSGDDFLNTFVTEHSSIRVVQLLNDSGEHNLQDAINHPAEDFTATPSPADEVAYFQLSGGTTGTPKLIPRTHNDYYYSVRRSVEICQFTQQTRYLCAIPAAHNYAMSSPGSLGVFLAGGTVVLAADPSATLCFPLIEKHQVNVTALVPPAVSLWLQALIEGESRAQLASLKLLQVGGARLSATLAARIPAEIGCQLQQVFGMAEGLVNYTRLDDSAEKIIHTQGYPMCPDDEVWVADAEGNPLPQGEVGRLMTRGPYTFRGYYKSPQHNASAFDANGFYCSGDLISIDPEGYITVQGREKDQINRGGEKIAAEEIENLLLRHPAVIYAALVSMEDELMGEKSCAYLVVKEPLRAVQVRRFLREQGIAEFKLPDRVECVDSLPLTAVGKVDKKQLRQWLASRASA
AsbC, sequence (Q81RQ7 whole entry, looked up): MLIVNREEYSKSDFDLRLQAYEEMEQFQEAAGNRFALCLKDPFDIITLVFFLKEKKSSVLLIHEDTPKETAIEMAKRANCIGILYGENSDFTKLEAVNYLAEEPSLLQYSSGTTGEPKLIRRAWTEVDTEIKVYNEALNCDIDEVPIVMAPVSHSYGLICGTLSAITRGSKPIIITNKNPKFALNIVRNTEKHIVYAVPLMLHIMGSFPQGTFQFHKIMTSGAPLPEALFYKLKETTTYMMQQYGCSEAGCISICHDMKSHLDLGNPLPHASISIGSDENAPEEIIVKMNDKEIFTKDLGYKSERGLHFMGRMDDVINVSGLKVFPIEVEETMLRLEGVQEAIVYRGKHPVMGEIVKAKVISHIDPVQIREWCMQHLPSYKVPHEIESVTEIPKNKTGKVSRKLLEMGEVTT

For Nc1ncnc2c1ncn2[C@@H]1O[C@H](COP(=O)(O)O)[C@@H](O)[C@H]1O [compound 22, adenosine monophosphate], the Kd [1, 19] was 125 µM, the Kd [2, 19] was 173 µM and the Kd [3] was 260 µM. It also gave a Kd [4, 19] of 183 µM, a Kd [5] of 12 µM and a Kd [5, 19] of 12 µM.

For O=C(O)c1ccccc1 [benzoic acid], the “kcat (pyrophosphate exchange)” value [6] is given as less than 0.017 s⁻¹ and the kcat [7] is given as less than 0.017 s⁻¹.

For O=C(O)c1ccc(O)c(O)c1 [3,4-dihydroxybenzoic acid], the “kcat (pyrophosphate exchange)” value [6] was less than 0.017 s⁻¹.

In the case of O=C(O)c1ccccc1O [compound 20, salicylic acid], the Kd [1, 20] is reported as 211 µM, the Kd [2, 20] is reported as 57.5 µM and the Kd [4] is reported as 11.9 µM. For the same molecule, the Km [7] was 91 µM, the kcat [7] was 2.5 s⁻¹ and the Kd [5] was 36.6 µM.

Molecule Nc1ncnc2c1ncn2[C@@H]1O[C@H](COS(=O)(=O)NC(=O)c2ccccc2O)[C@@H](O)[C@H]1O [compound 4, 5′-O-[N-(salicyl)sulfamoyl]adenosine] has a Kd [1, 20] of 0.0336 ± 0.006 µM and a Kd [2, 20] of 0.0167 ± 0.0031 µM.

O=C(O)c1cccc(O)c1O [compound 21, 2,3-dihydroxybenzoic acid] showed a Kd [1, 20] of 8.18 µM, a Kd [8] of 3.76 µM and a Kd [2, 20] of 2.63 µM. It also gave a Kd [4] greater than 300 µM and a Kd [5] of 1.64 µM.

CCN(CC)CC.Nc1ncnc2c1ncn2[C@@H]1O[C@H](COS(=O)(=O)NC(=O)c2ccccc2O)[C@@H](O)[C@H]1OCCOCCOCCNC(=O)c1ccc2c(c1)C(=O)OC21c2ccc(O)cc2Oc2cc(O)ccc21 [compound 6, 2′-O-{2-[2-(2-{[(Fluorescein-5-yl)carbonyl]amino}ethoxy)ethoxy]ethoxy}-5′-O-[N-(2-hydroxybenzoyl)sulfamoyl]adenosine Triethylammonium Salt] gave a TΔS [9] of 4.41 ± 0.18 kcal/mol, a ΔH [9] of -4.88 ± 0.17 kcal/mol and a Q [10] of 1.07. It also gave an AB [11] of 0.222 ± 0.002, a Q [11] of 1.02 and an AB [12] of 0.240 ± 0.002. For the same molecule, the Kd [12] was 0.0576 ± 0.0034 µM, the Q [12] was 1.07 and the koff [13] was 0.0085 ± 0.00033 s⁻¹. It also gave an AB [14] of 0.210 ± 0.001, a Kd [14] of 0.221 ± 0.008 µM and a Q [14] of 1.21. For the same molecule, the TΔS [15] was 0.71 ± 0.80 kcal/mol, the ΔH [15] was -9.80 ± 1.06 kcal/mol and the “change of fluorescence anisotropy of the probe (binding to AsbC)” value [16] was “did not show a significant change”. The AB [17] was 0.213 ± 0.005, the Kd [17] was 0.369 ± 0.033 µM and the Q [17] was 0.89. For the same molecule, the AB [18] was 0.200 ± 0.002, the Kd [18] was 0.0855 ± 0.0056 µM and the Q [18] was 1.27.
